Experimental data: patent publication US7709532B2, “Methods for improving bioavailability of a renin inhibitor” (Novartis AG, priority 2004, dated 2010)

Key:
in vitro = details: human, Caco-2
From the text: (§1) Alternatively, the in vitro transporter affinity of a drug substance can be determined and approximated by a Caco-2 cell assay as described, e.g., in Camenisch et al., Pharm. Act. Helv. 71, 309-327 (1996), or as illustrated herein in the Examples. The identification of the transporter protein and the efficacy of a compound to inhibit the efflux system involved may as well be determined in the Caco-2 cell assay.
(§2) Caco-2 cell monolayers grown on PET filters for 21-25 days are used for the transport experiments. The flux of compounds across Caco-2 cell monolayers grown on PET filters as well as across PET filters alone without Caco-2 cells is determined as follows: Prior to the transport experiment, the culture medium in the acceptor compartment (0.2 mL for apical and 1.0 mL for basolateral sides) is replaced with acceptor solution (HBSS, when relevant containing the inhibitor of interest) preincubated at 37° C. To start the experiment, the medium in the donor compartment (0.35 mL for apical and 1.15 mL for basolateral sides) is replaced with donor solution (compound in HBSS, when relevant containing inhibitor of interest) pre-incubated at 37° C. Aliquots of 150 μL are removed from the donor and the acceptor side after about 1 and 120 min. Transport experiments in both apical-to-basolateral and basolateral-to-apical directions are performed in triplicate at 37° C. in an incubator without shaking.
(§3) The suitability of Caco-2 cells for transport experiments is examined by measuring the permeability of [^3H]-mannitol at >0.1 μM and [^3H]-propranolol at >0.1 μM from apical to basolateral sides for 120 min in a total of 6 representative cell monolayers (3 for each compound) within the same batch of cells.
(§4) Radioactive samples are analyzed by liquid scintillation counting. All other non-radiolabeled samples are kept frozen at −20° C. until analysis by liquid chromatography/tandem mass spectrometry (LC-MS/MS).
(§5) Transport values of the compounds tested are determined using the following equation (Artursson et al., Biochem. Biophys. Res. Comm. 175: 880-885, 1991):
(§6) Papp values are presented as means ± standard deviations of the transport experiments performed (n=3). The statistical significance in differences between any two given data sets is examined by t-test. The probability level for assignment of significance of difference is p<0.025. All statistical analyses were performed using Microsoft EXCEL 5.0c.

Caco-2 cell monolayers = assay: in vitro; details: human, Caco-2, 120 min
From the text: as §1, §2, §3, §4, §5, §6

[1] = In vivo bioavailability experiment, single oral administration; design: species or system rat; details: for Cmax / Tmax: male, HAN:WIST, rat, plasma, po
From the text: Similarly, the effect in vivo of co-administration of an efflux protein inhibitor, e.g., a MDR1 inhibitor, on the bioavailability of a renin inhibitor may be investigated by comparing the pharmacokinetic parameters, Cmax and AUCs, in the presence and the absence of an efflux protein inhibitor.
The animals that may be used are, e.g., male albino HAN:WIST rats, 5 animals in each treatment group.
Plasma is used for biochemical analysis.

[2] = In situ bile-duct cannulated rat experiment (biliary clearance); details: for effect on 14C concentration in plasma: i.v. bolus of inhibitor (PSC833 10 mg/kg, probenecid 50 mg/kg) during constant infusion of [14C]-SPP100 hemifumarate
Method: The effect in situ of co-administration of an efflux protein inhibitor, e.g., a MDR1 inhibitor, on the biliary excretion of a renin inhibitor may be investigated by comparing the amount of compound excreted into bile, in the presence and the absence of an efflux protein inhibitor.
The animals that may be used are, e.g., male albino HAN:WIST rats, 4 to 5 animals in each treatment group.
For all treatment groups blood samples are collected at 0.5, 1, 1.33, 1.67, 2, 2.33, 2.67, 3 h after treatment and blood is immediately processed to plasma. Bile is collected for the time frame of 1 to 3 h in intervals of 20 min.
• for total radioactivity in all samples: LSC; LOQ 3.4 μg/L for plasma and bile; and • for detection of metabolite pattern in selected pools of samples: HPLC with radioactivity detection.

[3] = tested on: T1, COCCCOc1cc(C[C@@H](C[C@H](N)[C@@H](O)C[C@H](C(=O)NCC(C)(C)C(N)=O)C(C)C)C(C)C)ccc1OC; assay: ATPase assay in membrane vesicles expressing high levels of MDR1; assay type: biochemical, human; details: other: membrane vesicles expressing high levels of MDR1; pH 7.4; 37.0 °C
T1 construct: host or cells: Sf9 (Spodoptera frugiperda) membrane vesicles
From the text: The efflux protein(s) involved in the drug efflux of a drug substance may be identified, and the corresponding kinetic parameters may be determined, i.e., Michaelis-Menten Constant and Maximal Drug Transport (Km and Jmax) using methods known in the art, e.g., by an ATPase assay using Sf9 (Spodoptera fruigiperda) membrane vesicles expressing high levels of the selected ABC transporter. In this assay the ABC transporters remove substrates out of cells by using ATP hydrolysis as an energy source. ATP hydrolysis yields inorganic phosphate (Pi), which can be detected by a simple colorimetric reaction. The amount of Pi liberated by the transporter is proportional to the activity of the transporter. Membrane preparations containing ABC transporters show a baseline ATPase activity that varies for different transporters. […]
Efflux mediated by the human MDR1, the human MRP1 or the human MRP2 is measured by incubating the purified membrane vesicles in the absence and the presence of a stimulating agent (Verapamil [40 μM] for MDR1, NEM-GS [10 mM] for MRP1 and Probenecid [1 mM] for MRP2) with different concentrations of a drug substance [0.046, 0.137, 0.41, 1.23, 3.7, 11.1, 33.3 and 100 μM] in transport buffer at pH 7.4 at 37° C. […]
After incubating the OD is measured at 730 nm. Using a previously determined phosphate standard curve the Pi liberated [nmol/well] can be calculated. […]

[4] = 6 mg base/kg, rat plasma, oral SPP100 hemifumarate 6 mg base/kg + vehicle
[5] = 6 mg/kg, oral SPP100 6 mg base/kg + PSC833 5 mg/kg
[6] = 6 mg/kg, oral SPP100 6 mg base/kg + PSC833 12.5 mg/kg
[7] = 6 mg/kg, oral SPP100 6 mg base/kg + PSC833 25 mg/kg
[8] = 6 mg/kg, oral SPP100 6 mg base/kg + PSC833 50 mg/kg
[9] = probenecid 50 mg/kg i.v. during constant infusion of [14C]-SPP100 hemifumarate

## CC(C)NCC(O)COc1cccc2ccccc12 (centres unmarked) [Propranolol, reference compound]
In vitro
  Papp A→B at 120 min: < 15 ×10⁻⁶ cm/s

## OC[C@@H](O)[C@@H](O)[C@H](O)[C@H](O)CO [Mannitol, reference compound]
In vitro
  Papp A→B at 120 min: < 0.5 ×10⁻⁶ cm/s

## COCCCOc1cc(C[C@@H](C[C@H](N)[C@@H](O)C[C@H](C(=O)NCC(C)(C)C(N)=O)C(C)C)C(C)C)ccc1OC [SPP100, (2S,4S,5S,7S)-5-amino-4-hydroxy-2-isopropyl-7-[4-methoxy-3-(3-methoxy-propoxy)-benzyl]-8-methyl-nonanoic acid (2-carbamoyl-2-methyl-propyl)-amide hemifumarate]
In vitro
  Papp A→B at 120 min, 1 μM: ~0.0333 ×10⁻⁶ cm/s
  Papp A→B at 120 min, 10 µM: ~1.17 ×10⁻⁶ cm/s
  Papp B→A at 120 min, 1 µM: ~1.67 ×10⁻⁶ cm/s
Caco-2 cell monolayers
  intrinsic permeability: < 80%
[1]; [4]
  Cmax: ~24.8 ng/mL
  Tmax: 0.44 ± 0.1 h
[1]; [5]
  Cmax: 35.7 ± 18 ng/mL
  Tmax: 4.8 ± 1.8 h
[1]; [6]
  Cmax: 115 ± 93 ng/mL
  Tmax: 4.95 ± 4.2 h
[1]; [7]
  Cmax: 81.4 ± 19 ng/mL
  Tmax: 15.2 ± 18 h
[1]; [8]
  Cmax: 26.7 ± 18 ng/mL
  Tmax: 3.06 ± 1.9 h
[1]; oral SPP100 6 mg base/kg + PSC833 5 mg/kg
  dose-normalized AUC(0-tlast), times higher than in the vehicle group: about 23 times
[1]; oral SPP100 6 mg base/kg + PSC833 12.5 mg/kg
  dose-normalized AUC(0-tlast), times higher than in the vehicle group: ~69 times
[1]; oral SPP100 6 mg base/kg + PSC833 25 mg/kg
  dose-normalized AUC(0-tlast), times higher than in the vehicle group: ~76 times
[1]; oral SPP100 6 mg base/kg + PSC833 50 mg/kg
  dose-normalized AUC(0-tlast), times higher than in the vehicle group: ~17 times
[1]; orally dosed rats, in the presence of PSC833
  increase of dose-normalized AUC(0-tlast) compared to control group solely dosed with SPP100: about 70 fold
[1]; rat plasma, oral SPP100 hemifumarate 6 mg base/kg + vehicle
  dose-normalized AUC(0-tlast): 2.38±3.4 (ng*h/mL)/(mg/kg)

## C/C=C/C[C@@H](C)C(=O)[C@H]1C(=O)N[C@@H](C(C)C)C(=O)N(C)CC(=O)N(C)[C@@H](CC(C)C)C(=O)N[C@@H](C(C)C)C(=O)N(C)[C@@H](CC(C)C)C(=O)N[C@@H](C)C(=O)N[C@H](C)C(=O)N(C)[C@@H](CC(C)C)C(=O)N(C)[C@@H](CC(C)C)C(=O)N(C)[C@@H](C(C)C)C(=O)N1C [PSC833]
[2]; PSC833 10 mg/kg i.v. during constant infusion of [14C]-SPP100 hemifumarate
  effect on 14C concentration in bile: significant decrease
[2]
  effect on 14C concentration in plasma: trend towards a time dependent increase
[2]; i.v. bolus of inhibitor during constant i.v. infusion of [14C]-SPP100 hemifumarate, PSC833 10 mg/kg
  biliary clearance of [14C]-labeled compounds, % of the value obtained before administration: approximately 7%

## CCCN(CCC)S(=O)(=O)c1ccc(C(=O)O)cc1 [probenecid]
[2]
  effect on 14C concentration in plasma: no effect
[2]; [9]
  biliary clearance before and after administration: similar
  decrease of the [14C] concentration in bile vs value prior to administration: about 40%

## human MDR1 (Homo sapiens)
[3]
  Km: 3 µM
